Laboratory results as given in patent EP1144412B1, “IMMUNOSUPPRESSIVE EFFECTS OF PTERIDINE DERIVATIVES” (4 AZA Bioscience nv, priority 1998, dated 2000).
Where two headings read alike, the source gives them in different places.

How the values were obtained:
[1] = test system: Peripheral blood mononuclear cells (PBMC); test: Mixed lymphocyte reaction (MLR), [3H]-thymidine incorporation; format: cell-based; settings: Homo sapiens
Source text: (§1) Various models may be used for testing an immunosuppressive effect. In vivo, for example, different transplantation models are available. They are strongly influenced by different immunogenicities, depending on the donor and recipient species used and depending on the nature of the transplanted organ. The survival time of transplanted organs can thus be used to measure the suppression of the immune response. In vitro, there exist also various models. The most used are lymphocyte activation tests. Usually activation is measured via lymphocyte proliferation. Inhibition of proliferation thus always means immunosuppression under the experimental conditions applied. There exist different stimuli for lymphocyte activation: • coculture of lymphocytes of […] (MLR = mixed lymphocyte reaction): lymphocytes expressing different minor and major antigens of the HLA-DR type (= alloantigens) activate each other non-specifically. • CD3 assay: here there is an activation of the T-lymphocytes via an exogenously added antibody (OKT3). This antibody reacts against the CD3 molecule located on the lymphocyte membrane. This molecule has a costimulatory function. […] This molecule is also located on the lymphocyte membrane, and delivers strong costimulatory signals.
Peripheral blood mononuclear cells (PBMC) were isolated from heparinized peripheral blood by density gradient centrifugation over Lymphoprep (Nycomed, Maorstua, Norway). Allogeneic PBMC or EBV-transformed human B cells [RPMI1788 (ATCC name CCL156)] which strongly express B7-1 and B7-2 were used as stimulator cells after irradiation with 30 Gy. MLR was performed in triplicate wells. After 5 days incubation at 37EC, 1 µCi [^3H]-thymidine was added to each cup. After a further 16 hours incubation, cells were harvested and counted in a β-counter.
The percent suppression of proliferation by drugs was counted using the formula Percent inhibition =((cpm + drugs) - cpm Cult. Med)/((cpm - drugs) - cpm Cult. Med.)x 100 [formula]

Highly purified T cells [2] = test: T cell proliferation induced by anti-CD3 mAb + PMA (BrdU incorporation); format: cell-based, Human; settings: Homo sapiens, T-cell
Source text: as §1
(§2) T cells were purified by removing non-T cells. Briefly,monocytes were removed by cold agglutination. The resulting lymphoid cells were further purified by a cell enrichment immunocolumn [Cellect Human T (Biotex, Edmonton, Alberta, Canada)] by a process of negative selection.
(§3) Measurements of T cell proliferations induced by anti-CD3 mAb + PMA or anti-CD28 mAb + PMA
(§4) Highly purified T cells (10^6/ml) were stimulated by immobilized anti-CD3 àr anti-CD28 mAb in the presence of PMA. Anti-CD3 mAb (CLB-CD3; CLB, Amsterdam, The Netherlands) were fixed on the 96-microwell plates by incubating the wells with 50 µl of mAb solution (1/800 dilution in culture medium). Anti-CD28 mAb (CLB-CD28; CLB, Amsterdam, The Netherlands) 50 µl (1/650 dilution in culture medium) was added directly to the wells. Further, 20 µl PMA (Sigma, St. Louis, MO, USA) solution (final concentration: 0.5 ng/ml) was added. Subsequently, 20 µl of immunosuppressants were added by serial dilution in triplicate wells. Finally 100 µl of the T cell suspension (10^6/ml) was added. After 48-hour incubation at 37EC in 5% CO2 20 Φl BrdU (100 ΦM solution) (Cell Proliferation Elisa, Boehringer-Mannheim Belgium) was added to each well. After a further overnight incubation the T cell proliferation was measured using a colorimetric immunoassay for qualification of cell proliferation based on measurements of the incorporation of BrdU during DNAsynthesis. The optical density (OD) was measured by a Behring EL311 plate reader at 450 nm (reference wavelength: 690 nm). The percent suppression of proliferation by drugs was counted using the formula: Per cent inhibition =((OD + drugs) - (OD Cult. Med.))/((OD - drugs) - (OD Cult. Med.))x 100 [formula]

Highly purified T cells [3] = test: T cell proliferation induced by anti-CD28 mAb + PMA (BrdU incorporation); format: cell-based, Human; settings: Homo sapiens, T-cell
Source text: as §1, §2, §3, §4

[4] = Table IV, known pteridine derivatives, IC50 subranges, read-out: MLR
[5] = Table IV, known pteridine derivatives, IC50 subranges, read-out: aCD3
[6] = Table IV, known pteridine derivatives, IC50 subranges, read-out: aCD28
[7] = Table II, read-out: IC50 in µM of pteridine derivative MLR
[8] = untitled structure table, no unit printed there, same values in Table II as IC50 in µM, read-out: MLR
[9] = Table II, read-out: IC50 in µM of pteridine derivative ACD3
[10] = untitled structure table, no unit printed there, same values in Table II as IC50 in µM, read-out: aCD3
[11] = Table II, read-out: IC50 in µM of pteridine derivative aCD28
[12] = untitled structure table, no unit printed there, same values in Table II as IC50 in µM, read-out: aCD28

| Structure (SMILES) | IC50 [1, 7] [µM] | IC50 [1, 8] [µM] | IC50 (Highly purified T cells [2]; [9]) [µM] | IC50 (Highly purified T cells [2]; [10]) [µM] | IC50 (Highly purified T cells [3]; [11]) [µM] | IC50 (Highly purified T cells [3]; [12]) [µM] | further results |
| --- | --- | --- | --- | --- | --- | --- | --- |
| CC(C)C(=O)NCc1cnc2nc(N)nc(N)c2n1 [CH2 NH CO CH (CH3)2, reference compound] |  |  |  |  |  |  | IC50 [1, 4]: > 151 µM; IC50 (Highly purified T cells [2]; [5]): > 151 µM; IC50 (Highly purified T cells [3]; [6]): > 151 µM |
| CCCOCc1cnc2nc(N)nc(N)c2n1 [CH2 O CH2CH2CH3, reference compound] |  |  |  |  |  |  | IC50 [1, 4]: > 151 µM; IC50 (Highly purified T cells [2]; [5]): > 151 µM; IC50 (Highly purified T cells [3]; [6]): > 151 µM |
| COCc1cnc2nc(N)nc(N)c2n1 [CH2 O CH3, reference compound] |  |  |  |  |  |  | IC50 [1, 4]: > 151 µM; IC50 (Highly purified T cells [2]; [5]): > 151 µM; IC50 (Highly purified T cells [3]; [6]): > 151 µM |
| CSCc1cnc2nc(N)nc(N)c2n1 [CH2 S CH3, reference compound] |  |  |  |  |  |  | IC50 [1, 4]: > 151 µM; IC50 (Highly purified T cells [2]; [5]): > 151 µM; IC50 (Highly purified T cells [3]; [6]): > 151 µM |
| CN(C)Cc1cnc2nc(N)[nH]c(=O)c2n1 [CH2N(CH3)2, reference compound] |  |  |  |  |  |  | IC50 [1, 4]: > 151 µM; IC50 (Highly purified T cells [2]; [5]): > 151 µM; IC50 (Highly purified T cells [3]; [6]): > 151 µM |
| CNCc1cnc2nc(N)[nH]c(=O)c2n1 [CH2NHCH3, reference compound] |  |  |  |  |  |  | IC50 [1, 4]: > 151 µM; IC50 (Highly purified T cells [2]; [5]): > 151 µM; IC50 (Highly purified T cells [3]; [6]): > 151 µM |
| CCOCc1cnc2nc(N)[nH]c(=O)c2n1 [CH2OC2H5, reference compound] |  |  |  |  |  |  | IC50 [1, 4]: > 151 µM; IC50 (Highly purified T cells [2]; [5]): > 151 µM; IC50 (Highly purified T cells [3]; [6]): > 151 µM |
| CSCc1cnc2nc(N)[nH]c(=O)c2n1 [CH2S CH3, reference compound] |  |  |  |  |  |  | IC50 [1, 4]: > 151 µM; IC50 (Highly purified T cells [2]; [5]): > 151 µM; IC50 (Highly purified T cells [3]; [6]): > 151 µM |
| CCCCCOc1nc(N)nc2ncc(C=Cc3ccccc3)nc12 [Compound 1, 2-amino-4-pentoxy-6-styrylpteridine] | 15 | 15 | 110 | 110 | 80 | 80 |  |
| CCCCCOc1nc(N)nc2ncc(C(Br)C(Br)c3ccccc3)nc12 (centres unmarked) [Compound 2, 2-amino-4-n-pentoxy-6-(1,2-dibromo-2-phenylethyl)pteridine] | 12 | 12 | 4 | 4 | 12 | 12 |  |
| COc1nc2nc(N)nc(OC)c2nc1C=Cc1ccccc1 [Compound 3, 2-amino-4-methoxy-6-styryl-7-methoxypteridine] | 25 | 25 | 160 | 160 | 100 | 100 |  |
| COc1nc(N)nc2ncc(C(O)C(C)O)nc12 (centres unmarked) [Compound 4, 2-amino-4-methoxy-6-(1,2-dihydroxypropyl)pteridine] | > 200 | > 200 | 140 | 140 | 110 | 110 |  |
| Nc1nc(N)c2nc(-c3ccccc3)cnc2n1 [Compound 5, 2,4-diamino-6-phenyl pteridine] | > 200 | > 200 | > 200 | > 200 | > 200 | > 200 |  |
| O=c1[nH]cc(F)c(=O)[nH]1 [Compound 5-FU, 5-Fluoro-uracil, reference compound] |  |  |  |  |  |  | IC50 (Highly purified T cells [2]; Table III, comparison immunosuppressants, read-out: IC50 aCD3): 50 µM; IC50 (Highly purified T cells [3]; Table III, comparison immunosuppressants, read-out: IC50 aCD28): 17 µM |
| Cc1nc2nc(N)nc(N)c2nc1-c1ccccc1 [Compound 6, 2,4-diamino-6-phenyl-7-methylpteridine] | > 200 | > 200 | > 200 | > 200 | > 200 | > 200 |  |
| Cc1ccc(-c2cnc3nc(N)nc(N)c3n2)cc1 [Compound 7, 2,4-diamino-6-(4-tolyl)pteridine] | > 200 | > 200 | 110 | 110 | 25 | 25 |  |
| COc1ccc(-c2cnc3nc(N)nc(N)c3n2)cc1 [Compound 8, 2,4-diamino-6-(4-methoxyphenyl)pteridine] | 150 | > 150 | 125 | 125 | 22 | 22 |  |
| Nc1nc(N)c2nc(-c3ccc(Cl)cc3)cnc2n1 [Compound 9, 2,4-diamino-6-(4-chlorophenyl)pteridine] | 125 | 125 | 110 | 110 | 110 | 110 |  |
| Nc1nc(NCCO)nc2ncc(-c3ccccc3)nc12 [Compound 10, 2-hydroxyethylamino-4-amino-6-phenylpteridine] | 125 | 125 | 125 | 125 | 125 | 125 |  |
| Cc1ccc(-c2cnc3nc(NCCO)nc(N)c3n2)cc1 [Compound 11, 2-hydroxyethylamino-4-amino-6-(4-tolyl)pteridine] | > 200 | > 200 | 200 | 200 | 160 | 160 |  |
| COc1ccc(-c2cnc3nc(NCCO)nc(N)c3n2)cc1 [Compound 12, 2-hydroxyethylamino-4-amino-6-(4-methoxyphenyl)pteridine] | > 200 | > 200 | > 200 | > 200 | 160 | 160 |  |
| Nc1nc(NO)c2nc(-c3ccccc3)cnc2n1 [Compound 13, 2-amino-4-hydroxylamino-6-phenylpteridine] | 140 | 140 | > 200 | > 200 | > 200 | > 200 |  |
| CN(C)c1nc(N)nc2ncc(-c3ccccc3)nc12 [Compound 14, 2-amino-4-dimethylamino-6-phenylpteridine] | 5 | 5 | 15 | 15 | 15 | 15 |  |
| Cc1ccc(-c2cnc3nc(N)nc(N(C)C)c3n2)cc1 [Compound 15, 2-amino-4-dimethylamino-6-(4-tolyl)pteridine] | 3.6 | 3.6 | 4.5 | 4.5 | 3.9 | 3.9 |  |
| COc1ccc(-c2cnc3nc(N)nc(N(C)C)c3n2)cc1 [Compound 16, 2-amino-4-dimethylamino-6-(4-methoxyphenyl)pteridine] | 12 | 12 | 7.5 | 7.5 | 7.5 | 7.5 |  |
| COCCOCc1cnc2nc(N)nc(N)c2n1 [Compound 17, 2,4-diamino-6-methoxyethoxymethyl pteridine] | > 200 | > 200 | 180 | 180 | 18 | 18 |  |
| CCCNc1nc(N)nc2ncc(-c3ccc(OC)c(OC)c3)nc12 [Compound 63, 2-amino-4-propylamino-6-(3,4-dimethoxyphenyl)pteridine] |  |  |  |  |  |  | IC50 ([1]; untitled structure table, IC50 subranges, read-out: MLR): < 1 µM |
| CCOc1nc(N)nc2ncc(-c3ccc(OC)c(OC)c3)nc12 [Compound 66, 2-amino-4-ethoxy-6-(3,4-dimethoxyphenyl)pteridine] |  |  |  |  |  |  | IC50 (Highly purified T cells [2]; untitled structure table, IC50 subranges, read-out: aCD3): < 1 µM; IC50 (Highly purified T cells [3]; untitled structure table, IC50 subranges, read-out: aCD28): < 1 µM |
